Laboratory results reported in ChEMBL document CHEMBL1201862, “PubChem BioAssay data set” (2004).
Values belong to the compound of their own block, whether it stands above or below them. Calls of active or inactive are those of the source.

What was measured:
[1] = target: T1, Sentrin-specific protease 6 (Homo sapiens, UniProt Q9GZR1); test: SENP6 protease inhibitors, SAR follow-up, biochemical, luminescence, set 2 (AID 588598); type: functional
T1 sequence (Q9GZR1 whole entry): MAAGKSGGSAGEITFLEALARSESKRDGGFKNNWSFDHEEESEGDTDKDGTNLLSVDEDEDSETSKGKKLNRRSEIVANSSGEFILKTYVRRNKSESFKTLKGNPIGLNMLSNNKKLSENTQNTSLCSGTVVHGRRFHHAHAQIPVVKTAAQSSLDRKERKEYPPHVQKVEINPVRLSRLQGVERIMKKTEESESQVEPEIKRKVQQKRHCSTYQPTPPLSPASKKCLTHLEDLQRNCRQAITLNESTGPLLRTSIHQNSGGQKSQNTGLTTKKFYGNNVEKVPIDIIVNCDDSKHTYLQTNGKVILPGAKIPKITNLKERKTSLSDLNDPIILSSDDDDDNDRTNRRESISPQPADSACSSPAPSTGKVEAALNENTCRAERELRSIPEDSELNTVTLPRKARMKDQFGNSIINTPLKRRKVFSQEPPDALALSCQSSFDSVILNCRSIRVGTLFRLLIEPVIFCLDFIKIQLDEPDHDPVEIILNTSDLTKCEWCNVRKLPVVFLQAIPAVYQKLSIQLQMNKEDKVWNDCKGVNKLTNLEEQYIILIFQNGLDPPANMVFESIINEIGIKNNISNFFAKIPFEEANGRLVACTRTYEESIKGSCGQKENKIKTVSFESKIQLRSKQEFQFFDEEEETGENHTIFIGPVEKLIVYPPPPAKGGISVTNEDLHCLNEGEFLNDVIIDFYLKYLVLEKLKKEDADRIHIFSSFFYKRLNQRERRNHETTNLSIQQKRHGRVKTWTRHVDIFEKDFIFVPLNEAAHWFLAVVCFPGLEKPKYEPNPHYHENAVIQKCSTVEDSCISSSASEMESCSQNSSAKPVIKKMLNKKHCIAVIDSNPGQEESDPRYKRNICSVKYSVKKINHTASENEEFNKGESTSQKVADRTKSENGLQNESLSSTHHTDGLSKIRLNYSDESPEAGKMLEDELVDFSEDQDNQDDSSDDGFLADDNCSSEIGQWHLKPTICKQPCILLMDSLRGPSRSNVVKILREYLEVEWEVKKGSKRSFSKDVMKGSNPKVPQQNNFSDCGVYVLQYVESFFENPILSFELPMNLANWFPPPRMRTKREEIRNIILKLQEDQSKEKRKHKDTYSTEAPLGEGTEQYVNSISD

[2] = target: T2, Sentrin-specific protease 8 (Homo sapiens, UniProt Q96LD8); test: SENP8 protease inhibitors, SAR follow-up, biochemical, luminescence, set 2 (AID 588601); type: functional
T2 sequence (Q96LD8 whole entry): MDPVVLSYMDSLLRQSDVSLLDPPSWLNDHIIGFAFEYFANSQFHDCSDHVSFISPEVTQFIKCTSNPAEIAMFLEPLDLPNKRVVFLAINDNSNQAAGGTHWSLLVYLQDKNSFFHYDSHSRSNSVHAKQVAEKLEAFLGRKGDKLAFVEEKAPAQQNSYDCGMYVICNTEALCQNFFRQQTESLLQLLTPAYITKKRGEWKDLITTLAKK

Caspase-3 = target: T3, Caspase-3 (Homo sapiens, UniProt P42574); test: caspase-3 inhibitors as off-family protease, SAR follow-up, selectivity assay for SENP protease inhibitor project, biochemical, luminescence, set 2 (AID 588599); type: functional
T3 sequence (P42574 whole entry): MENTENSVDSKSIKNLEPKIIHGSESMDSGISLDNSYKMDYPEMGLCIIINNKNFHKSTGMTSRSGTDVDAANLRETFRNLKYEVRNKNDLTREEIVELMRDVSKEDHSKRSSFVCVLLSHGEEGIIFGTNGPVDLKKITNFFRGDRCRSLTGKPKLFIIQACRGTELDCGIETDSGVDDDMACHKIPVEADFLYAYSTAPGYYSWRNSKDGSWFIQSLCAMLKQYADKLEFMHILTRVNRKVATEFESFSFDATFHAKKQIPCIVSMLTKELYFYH

[3] = target: T4, Sentrin-specific protease 7 (Homo sapiens, UniProt Q9BQF6); test: SENP7 protease inhibitors, SAR follow-up, biochemical, luminescence, set 2 (AID 588600); type: functional
T4 sequence (Q9BQF6 whole entry): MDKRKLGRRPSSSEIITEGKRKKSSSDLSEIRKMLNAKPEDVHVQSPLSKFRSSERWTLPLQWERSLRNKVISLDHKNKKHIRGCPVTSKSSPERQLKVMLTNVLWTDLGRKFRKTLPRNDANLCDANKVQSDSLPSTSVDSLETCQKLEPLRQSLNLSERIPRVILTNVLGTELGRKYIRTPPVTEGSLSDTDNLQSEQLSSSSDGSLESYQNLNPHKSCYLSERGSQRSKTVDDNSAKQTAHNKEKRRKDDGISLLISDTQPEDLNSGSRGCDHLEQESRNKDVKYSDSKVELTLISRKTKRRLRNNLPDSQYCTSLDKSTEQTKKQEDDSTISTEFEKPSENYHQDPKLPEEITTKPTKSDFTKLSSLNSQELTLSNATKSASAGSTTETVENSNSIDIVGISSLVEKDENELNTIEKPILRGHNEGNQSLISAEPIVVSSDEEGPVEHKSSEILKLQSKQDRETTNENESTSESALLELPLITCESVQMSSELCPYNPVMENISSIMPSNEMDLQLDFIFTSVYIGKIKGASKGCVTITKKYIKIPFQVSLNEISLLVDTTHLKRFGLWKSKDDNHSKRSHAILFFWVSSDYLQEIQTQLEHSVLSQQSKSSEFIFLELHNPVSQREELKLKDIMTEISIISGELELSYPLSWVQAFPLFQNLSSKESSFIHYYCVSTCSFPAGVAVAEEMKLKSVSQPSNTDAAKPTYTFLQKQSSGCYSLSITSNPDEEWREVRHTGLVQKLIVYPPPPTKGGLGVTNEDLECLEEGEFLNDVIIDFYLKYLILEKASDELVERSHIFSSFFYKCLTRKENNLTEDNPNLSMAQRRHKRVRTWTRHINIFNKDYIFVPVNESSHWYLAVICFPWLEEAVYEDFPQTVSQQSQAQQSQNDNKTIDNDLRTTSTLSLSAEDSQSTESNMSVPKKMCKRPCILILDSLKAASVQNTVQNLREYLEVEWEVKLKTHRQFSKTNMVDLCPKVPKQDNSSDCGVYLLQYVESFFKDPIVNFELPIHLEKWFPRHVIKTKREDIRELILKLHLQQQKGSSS

[4] = cytotoxicity in HEK-293T cells, dose response, cytotoxicity control for BCR NF-kB inhibitor project, luminescence, B-cell screen hits (AID 489021); type: functional, cell-based;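 further: HEK-293T cells carrying an NF-kB luciferase reporter; cells exposed to compound for about 14 hours before viability readout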
HEK293 = test: cytotoxicity in HEK293T NF-kB-Luc cells, SAR follow-up, cytotoxicity control for NF-kB activator project, cell-based, resazurin fluorescence (AID 493251); type: functional; conditions: Homo sapiens
[5] = growth suppression of beta-catenin-knockout colon cells, dose response, cell-based, HCT116, human colon tumor (AID 1045); type: functional;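 further: HCT116 colon tumor cells with beta catenin knocked out; cells exposed to compound for 60 hours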
[6] = growth suppression of PTEN-null colon cells, dose response, cell-based, HCT116 PTEN knockout (AID 1047); type: functional;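 further: HCT116 colon tumor cells with PTEN knocked out; cells exposed to compound for 60 hours before readout; potency for loss of cell viability measured by luminescence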
[7] = target: T5, Microphthalmia-associated transcription factor (Homo sapiens, UniProt O75030); test: TRPM1 promoter luciferase signal decrease, dose response, MITF inhibitor project, cell-based, SK-MEL-5, cherry-picked, set 3 (AID 493073); type: functional
T5 sequence (O75030 whole entry): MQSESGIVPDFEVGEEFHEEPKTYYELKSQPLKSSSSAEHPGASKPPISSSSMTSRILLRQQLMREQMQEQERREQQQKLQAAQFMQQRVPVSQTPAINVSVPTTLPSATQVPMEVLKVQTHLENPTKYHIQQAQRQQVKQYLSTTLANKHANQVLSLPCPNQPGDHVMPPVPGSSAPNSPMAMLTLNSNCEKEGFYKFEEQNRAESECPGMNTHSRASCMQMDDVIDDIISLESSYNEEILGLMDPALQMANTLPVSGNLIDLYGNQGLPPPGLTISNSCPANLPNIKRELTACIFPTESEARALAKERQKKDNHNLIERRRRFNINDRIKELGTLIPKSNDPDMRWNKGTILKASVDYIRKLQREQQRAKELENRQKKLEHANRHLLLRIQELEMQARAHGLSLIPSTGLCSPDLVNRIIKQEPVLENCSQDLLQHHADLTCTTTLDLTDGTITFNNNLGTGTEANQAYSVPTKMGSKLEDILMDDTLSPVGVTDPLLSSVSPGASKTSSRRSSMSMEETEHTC

A-375 = test: A375 melanoma cell viability reduction, dose response, counter-screen for MITF modulator project, cherry-pick samples, set 2 (AID 540335); type: functional, cell-based; conditions: Homo sapiens
[8] = Luminescence Cell-Based Dose Retest to Confirm Inhibitors of Cancer Stem Cells. [Related pubchem assays (depositor defined):AID2717, AID2721]; type: functional; conditions: Homo sapiens

IC50 [1]: > 99 µM (inactive)
IC50 (Caspase-3): > 99 µM (inactive)
IC50 [3]: > 99 µM (inactive)
SMILES: Cc1[nH]c2ccccc2c1C(=O)C(=O)NCCCN1CCOCC1
IC50 [2]: > 99 µM (inactive)

SMILES: CCc1ccc(-c2nc(CSCC(=O)NC3CC3)c(C)o2)cc1
IC50 [4]: > 80 µM (inactive)
IC50 (HEK293): > 80 µM (inactive)

SMILES: Cc1ccc(NC2=C(Cl)C(=O)c3ccccc3C2=O)cc1
EC50 [5]: 4.88 µM (active)
EC50 [6]: 10.7 µM (active)
AC50 [7]: 5.25 µM (active)
AC50 (A-375): 12.6 µM (active)
AC50 [8]: 1.17 µM (active)
